Measurements from PubChem BioAssay (NCI).
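Grown in 96-well plates, cells were treated for 48 hours with each compound at five concentrations. Insufficient inhibition: endpoint recorded as highest concentration tested. At the GI50, growth is halved. At the TGI there is no net growth.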

Key:
Test in all cases: inhibition of tumour cell growth, NCI panel, 48 h
[1] = tested on: HCT-116 colon
[2] = tested on: KM12 colon
[3] = tested on: NCI-H460 lung
[4] = tested on: OVCAR-5 ovarian
[5] = tested on: SK-MEL-2 melanoma
[6] = tested on: SK-MEL-28 melanoma
[7] = tested on: SK-MEL-5 melanoma
[8] = tested on: SK-OV-3 ovarian
[9] = tested on: T-47D breast
[10] = tested on: U251 CNS

Row | Structure (SMILES) | GI50 [1] [µM] | TGI [1] [µM] | GI50 [2] [µM] | TGI [2] [µM] | GI50 [3] [µM] | TGI [3] [µM] | GI50 [4] [µM] | TGI [4] [µM] | GI50 [5] [µM] | TGI [5] [µM] | GI50 [6] [µM] | TGI [6] [µM] | GI50 [7] [µM] | TGI [7] [µM] | GI50 [8] [µM] | TGI [8] [µM] | GI50 [9] [µM] | TGI [9] [µM] | GI50 [10] [µM] | TGI [10] [µM]
1 | COc1cc(Nc2nc3cc(N)cc(N)c3nc2-c2ccccc2)cc(OC)c1 | 16.9 | 54.1 | 13.3 | 31.2 | 7.91 | 52.8 | 26.6 | > 100 | 12 | 63.8 | 14.7 | 89.3 | 10.5 | 30 | 6.55 | 40.2 | 4.44 | 23 | 22.9 | > 100
2 | c1ccc(Cc2nc3ccc(Nc4ncnc5ccccc45)cc3[nH]2)cc1 | > 25 | > 25 | > 25 | > 25 | > 25 | > 25 | 17.8 | > 25 | > 25 | > 25 | > 25 | > 25 | > 25 | > 25 | 7.03 | > 25 | > 25 | > 25 | > 25 | > 25
3 | CSc1nc2c(c(=O)[nH]1)N=C1c3ccccc3C(=O)C1C(c1ccc(F)cc1)N2 (centres undefined) | 7.23 | 19.9 | 3.77 | 15.6 | 5.1 | 38.7 | 17.7 | 41.1 | 49.3 | > 100 | 9.03 | 62.4 | 6.13 | 66.6 | 14.1 | 50.4 | 14.2 | 94.6 | 5.43 | 19.3
4 | Oc1ccc(/C=N\Nc2ccccn2)c(O)c1 | 1.7 | > 100 | 1.51 | 20.4 | 0.443 | 3.99 | 5.48 | > 100 | 9.43 | > 100 | 16 | > 100 | 2.17 | > 100 | 3.24 | > 100 | 2.41 | > 100 | 0.773 | > 100
5 | COP(=O)(OC)C(NC(c1ccccc1)c1ccccc1)c1ccc2c(c1)OCO2 (centres undefined) | 16.3 | 35.3 | 30 | 81.3 | 20.1 | 42 | 54.6 | > 100 | 23.8 | 50.2 | 21.5 | 44.8 | 16.9 | 30.5 | 40.7 | > 100 | 27 | 84.7 | 30.8 | > 100
6 | N#CC(=S)Nc1cccc(Cl)c1 | – | > 100 | – | > 100 | – | > 100 | – | > 100 | – | > 100 | – | > 100 | – | 44.5 | – | 87.9 | – | > 100 | – | > 100
7 | Cc1ccc(C(CN(C)C)C(=O)c2ccccc2)cc1 (centres undefined) | 0.514 | 1.83 | 4 | 14.7 | 7.38 | 21.9 | 4.23 | 15.8 | 4.45 | 15.8 | 2.83 | 8.37 | 3.67 | 13.6 | 14.7 | 31.3 | 2.35 | 12.7 | 3.4 | 12.8
8 | O=C(O)c1ccc2c(c1)Cc1cc([N+](=O)[O-])ccc1-2 | – | > 100 | – | > 100 | – | > 100 | – | > 100 | – | > 100 | – | > 100 | – | > 100 | – | > 100 | – | > 100 | – | > 100
9 | CCCC[C@H]1C(=O)O[C@H](C)[C@H](NC(=O)c2cccc(NC=O)c2O)C(=O)O[C@@H](C)[C@@H]1OC(=O)CC(C)C | – | 19.5 | – | 30.8 | – | 27.4 | – | 39 | – | 22.2 | – | 72.9 | – | 16.8 | – | 54.4 | – | 44.8 | – | 21.9
10 | COc1cc2oc(=O)ccc2cc1C1OC(=O)C2OC21C (centres undefined) | – | > 100 | – | > 100 | – | > 100 | – | > 100 | – | > 100 | – | > 100 | – | > 100 | – | > 100 | – | > 100 | – | > 100
11 | CC(C)(C)N1CCC1C(N)=O (centres undefined) | > 100 | > 100 | > 100 | > 100 | > 100 | > 100 | > 100 | > 100 | > 100 | > 100 | > 100 | > 100 | > 100 | > 100 | > 100 | > 100 | > 100 | > 100 | > 100 | > 100
12 | OCc1cn(Cc2cccc(Cl)c2)c2ccccc12 | < 0.0163 | 13.5 | 16.2 | 33.8 | 0.0346 | 17.9 | 2.63 | 8.89 | 3.16 | 14.8 | 20.5 | 60.9 | 11 | 23.7 | 4.42 | 47.4 | < 0.0208 | 5.15 | 0.865 | 22.6
13 | C[C@]12CCC3[C@@H](C[C@@H]4SC(Nc5ccccc5)=N[C@@]45CC(=O)CC[C@]35C)[C@@H]1CCC2=O (some centres undefined) | 1.91 | 4.16 | 8.27 | 29.3 | 4.65 | 27.9 | 24.5 | > 100 | 17.1 | 60.8 | 20.5 | > 100 | 10.2 | 26 | 34 | > 100 | 3.5 | > 100 | 4.41 | 19.3
14 | Cc1ccc2c(c1)nc(C(=O)c1ccco1)c(C(F)(F)F)[n+]2[O-] | > 100 | > 100 | > 100 | > 100 | > 100 | > 100 | > 100 | > 100 | > 100 | > 100 | > 100 | > 100 | 1.6 | 2.94 | > 100 | > 100 | 50.3 | > 100 | > 100 | > 100
15 | CC1=C(/C=C/C(C)=C\C=C\C(C)=C\C(=O)Nc2ccc3c(c2)OCO3)C(C)(C)CCC1 | 29.5 | > 100 | 39.2 | > 100 | 50.5 | > 100 | > 100 | > 100 | 61.6 | > 100 | > 100 | > 100 | 16.2 | 68.1 | > 100 | > 100 | 25.4 | > 100 | 77.5 | > 100
16 | CN(C)CCCn1c2c(c3cnccc3c1=O)C(=O)c1ccccc1-2 | 0.245 | 11.7 | 0.488 | 9.58 | 0.39 | 1.75 | 0.558 | 9.04 | 0.829 | 3.6 | 0.508 | 2.59 | 0.363 | 1.48 | 1.96 | 28.7 | 0.509 | 6.99 | 0.425 | 11.4
17 | Nc1ccc2c(SCCSc3c4ccccc4nc4cc(N)ccc34)c3ccccc3nc2c1 | – | > 100 | – | > 100 | – | > 100 | – | > 100 | – | > 100 | – | > 100 | – | > 100 | – | > 100 | – | > 100 | – | > 100
18 | Nc1ccccc1C#C/C=C\C#Cc1ccccc1C(F)(F)F | 0.432 | > 35.4 | 1 | 12.7 | 1.53 | > 40 | 1.15 | 10.8 | 21.8 | > 100 | 18.2 | > 100 | 0.841 | 6.3 | 0.888 | 24.7 | 19.4 | 61.2 | 0.621 | 15.7
19 | N#Cc1c(C(=O)c2ccccc2)cnn1-c1ccccc1 | > 25 | > 25 | > 25 | > 25 | > 25 | > 25 | > 25 | > 25 | > 25 | > 25 | > 25 | > 25 | > 25 | > 25 | > 25 | > 25 | > 25 | > 25 | > 25 | > 25
20 | O=c1cccc(C#CC#C[C@H]2O[C@@H]2CO)o1 | 0.638 | – | 0.986 | 3.47 | 1.08 | 6.74 | 1.73 | 3.57 | 5.53 | > 21 | 0.37 | 1.71 | 1.5 | 2.95 | 2.66 | 7.18 | 0.401 | 1.47 | 0.355 | 0.958
21 | C=C1[C@@H](C)[C@H]2[C@H](Cc3ccccc3)NC(=O)[C@]23OC(=O)/C=C/[C@H](O)CCC[C@@H](C)C/C=C/[C@H]3[C@@H]1O | – | > 100 | – | > 100 | – | 57.8 | – | > 100 | – | 89.1 | – | > 100 | – | 63.1 | – | > 100 | – | > 100 | – | 57.8
22 | C1CC[N-]CC1.C1CC[N-]CC1.C1CC[N-]CC1.C1CC[N-]CC1.[Cl][Rh][Cl] | 4.75 | > 100 | 7.04 | 21.8 | 2.87 | 26.5 | 6.83 | 49.8 | 12.7 | 41.8 | 3.36 | 21.6 | 4.2 | 18.9 | 14.8 | > 100 | 3.87 | > 100 | 4.72 | 23.8
23 | O=C(O)c1cc2ccccc2c(O)c1O | – | 30.7 | – | 30.4 | – | 41.8 | – | 32.1 | – | 14.6 | – | 18.1 | – | 8.18 | – | 29 | – | 57.7 | – | 31
24 | Cc1ccc(C(=O)Nc2ccc(CN3CCN(C)CC3)c(C(F)(F)F)c2)cc1C#Cc1cnc(N)cc1C#N | 0.0852 | 0.642 | 0.122 | 0.716 | 0.0915 | 0.968 | 0.309 | 1.42 | 0.108 | 0.479 | 0.106 | 0.701 | 0.741 | 1.43 | 0.186 | 2.5 | 0.605 | 8.71 | 0.222 | 0.997
25 | NC(=O)c1cnc(N[C@@H]2CCCC[C@@H]2N)nc1Nc1cccc(-n2nccn2)c1 | 2.3 | 7.7 | 2.15 | 10.2 | 3.42 | 12.6 | 3.65 | 15.3 | 3.29 | 15.2 | 3.26 | 11.3 | 5.37 | 18 | 4.14 | 15.1 | 6.44 | 22.1 | 5.87 | 18.2
26 | COc1ccccc1-[n+]1cc(-c2ccc(-c3ccccc3)cc2)n2c1CCCCC2 | 0.231 | 11.9 | 0.288 | 3.17 | 0.388 | 11.5 | 0.668 | 16.6 | 0.237 | 2.22 | 0.384 | 11.2 | 0.166 | 0.475 | 0.368 | 5.82 | 0.0774 | 11.9 | 0.383 | 15.7
27 | CCCCn1c2cc(OCc3cn(-c4ccc(Cl)cc4)nn3)ccc2c2ccnc(C)c21 | 5.11 | 13.2 | 10.1 | > 33.3 | 7.2 | 18.6 | 6.55 | 21.5 | 7.82 | 22.5 | 5.82 | 14 | 5.35 | 9.87 | 5.45 | 13.4 | 4.3 | 15 | 5.66 | 12.6
